# Structures can show the parent of a compound that is named as a salt. Where two headings read alike, the source gives them in different places.
# Legend:
# [1] = PK, intravenous administration; format: in vivo, male Sprague Dawley rats; details: male, Sprague Dawley, plasma, rat, intravenous; for AUC: read-out: AUC; for clearance: read-out: Cl; for half-life: read-out: T1/2 (converted); for Vd: read-out: Vdss
# Protocol: (§1) Pharmacokinetic parameters were determined in male Sprague Dawley rats (Charles River, UK, 250-300 g; or Vital River Laboratory Animal Technology Co Ltd, Beijing, China, 7-9 weeks old). Animals were individually housed during the study and maintained under a 12 h light/dark cycle. Animals had free access to food and water except that orally dosed animals were food deprived overnight prior to the study. For intravenous administration, compounds were formulated as a solution in water or DMSO:PBS [10:90] in 2 mL/kg dosing volume and administered via tail vein. For oral administration, compounds were formulated as a solution in water or DMSO:water [10:90] in 5 mL/kg dosing volume and administered orally. Serial blood samples (about 120-300 μL) were taken from each animal at each of 8 time-points post dose (0.083, 0.25, 0.5, 1, 2, 4, 8 and 24 h). Samples were held on ice for no longer than 30 minutes before centrifugation (10,000 rpm (8,385 g) for 3 minutes; or 5,696 rpm (3,000 g) for 15 minutes) for plasma generation. Plasma was frozen on dry ice prior to bioanalysis. PK parameters were generated from LC-MS/MS data using Dotmatics or Phoenix WinNonlin 6.3 software.
# [2] = biological target: T1, NLRP3 (Homo sapiens (Human), UniProt Q96P20); assay: THP-1 cells pyroptosis assay (LPS + nigericin, resazurin read-out); format: cell-based; details: 1 μg/ml LPS, 5 μM nigericin
# T1 sequence (Q96P20 whole entry): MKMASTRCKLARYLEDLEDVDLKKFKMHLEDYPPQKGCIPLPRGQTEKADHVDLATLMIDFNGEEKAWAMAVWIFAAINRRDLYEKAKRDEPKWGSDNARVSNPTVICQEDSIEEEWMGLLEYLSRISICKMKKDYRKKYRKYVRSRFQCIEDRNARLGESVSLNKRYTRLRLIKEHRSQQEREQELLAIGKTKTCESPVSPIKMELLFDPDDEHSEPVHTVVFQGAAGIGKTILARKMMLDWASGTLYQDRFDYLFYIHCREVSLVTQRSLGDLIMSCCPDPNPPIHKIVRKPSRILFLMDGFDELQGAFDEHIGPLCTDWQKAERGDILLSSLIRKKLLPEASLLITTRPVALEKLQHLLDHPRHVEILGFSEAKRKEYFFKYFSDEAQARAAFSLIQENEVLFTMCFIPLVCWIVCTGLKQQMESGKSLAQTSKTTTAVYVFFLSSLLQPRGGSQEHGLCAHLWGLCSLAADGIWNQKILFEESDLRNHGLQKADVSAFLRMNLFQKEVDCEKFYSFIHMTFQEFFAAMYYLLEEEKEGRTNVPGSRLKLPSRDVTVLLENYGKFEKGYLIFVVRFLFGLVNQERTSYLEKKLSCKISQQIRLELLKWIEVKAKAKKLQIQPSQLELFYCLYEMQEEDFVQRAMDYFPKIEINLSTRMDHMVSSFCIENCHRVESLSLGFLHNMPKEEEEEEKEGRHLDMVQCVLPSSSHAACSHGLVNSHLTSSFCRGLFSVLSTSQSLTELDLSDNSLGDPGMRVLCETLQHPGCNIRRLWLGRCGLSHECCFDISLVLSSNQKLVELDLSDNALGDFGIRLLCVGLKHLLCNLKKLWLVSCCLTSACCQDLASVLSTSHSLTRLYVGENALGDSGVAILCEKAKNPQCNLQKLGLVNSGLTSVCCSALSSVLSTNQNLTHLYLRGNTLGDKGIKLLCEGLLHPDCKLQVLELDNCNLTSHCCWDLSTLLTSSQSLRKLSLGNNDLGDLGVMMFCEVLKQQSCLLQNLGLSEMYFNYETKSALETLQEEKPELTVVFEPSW
# In short: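 LPS-primed (1 μg/ml) human THP-1 cells in serum-free RPMI were exposed to compound (8-point half-log series, top dose as printed "10M") for 3 h at 37 °C, then to nigericin 5 μM for 1 h. Remaining viability was read by resazurin (100 μM, 1-2 h) fluorescence, and IC50 came from 4-parameter variable-slope regression.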
# [3] = biological target: T1, NLRP3; assay: Human whole blood IL1β release assay (LPS + nigericin); format: cell-based; details: human whole blood, 1 μg/ml LPS, nigericin, IL-1β release; read-out: HWB IC50
# Protocol: For systemic delivery, the ability to inhibit NLRP3 when the compounds are present within the bloodstream is of great importance. For this reason, the NLRP3 inhibitory activity of a number of compounds in human whole blood was investigated in accordance with the following protocol.
# Human whole blood in Li-heparin tubes was obtained from healthy donors from a volunteer donor panel. • 1. Plate out 80 μl of whole blood containing 1 μg/ml of LPS in 96-well, clear bottom cell culture plate (Corning #3585) • 2. Add 10 μl compound (8 points half-log dilution with 10 μM top dose) or vehicle (DMSO 0.1% FAC) to the appropriate wells • 3. Incubate for 3 hrs at 37° C., 5% CO2 • 4. Add 10 μl nigericin (Sigma #N7143) ([…]) to all wells • 5. Incubate for 1 hr at 37° C., 5% CO2 • 6. At the end of the incubation period, spin plates at 30×g for 5 mins to pellet cells and remove 20 μl of supernatant and add to 96-well v-bottom plates for IL-1β analysis (note: these plates containing the supernatants can be stored at −80° C. to be analysed at a later date) • 7. IL-1β was measured according to the manufacturer protocol (Perkin Elmer-AlphaLisa IL-Kit A[220F-5000) • 8. IC50 data is fitted to a non-linear regression equation (log inhibitor vs response-variable slope 4-parameters)
# [4] = PK, oral administration; format: in vivo, male Sprague Dawley rats; details: male, Sprague Dawley, plasma, rat, dose 3 mg/kg
# Protocol: as §1
Compound,AUC ([1]; dose 1 mg/kg),clearance ([1]; dose 1 mg/kg),half-life ([1]; dose 1 mg/kg),Vd ([1]; dose 1 mg/kg),IC50 [2],IC50 [3],AUC ([1]; dose 2.09 mg/kg),clearance ([1]; dose 2.09 mg/kg),half-life ([1]; dose 2.09 mg/kg),Vd ([1]; dose 2.09 mg/kg),AUC [4],Cmax [4],Tmax [4],half-life [4]
"O=C(Nc1c2c(cc3c1CCC3)CCC2)NS(=O)(=O)C1CN(C2CSC2)C1 [Example 109, N-((1,2,3,5,6,7-Hexahydro-s-indacen-4-yl)carbamoyl)-1-(thietan-3-yl)azetidine-3-sulfonamide, potassium salt]",1730 ng·h/mL,9.6 mL/min/kg,1.3 h,0.64 L/kg,< 1000 nM,< 1000 nM,,,,,,,,
"CCN1CCCC(S(=O)(=O)NC(=O)Nc2c3c(cc4c2CCC4)CCC3)C1 (centres unmarked) [Example 9, 1-Ethyl-N-((1,2,3,5,6,7-hexahydro-s-indacen-4-yl)carbamoyl)-piperidine-3-sulfonamide, potassium salt]",2670 ng·h/mL,6.5 mL/min/kg,3.9 h,0.63 L/kg,< 1000 nM,< 1000 nM,,,,,,,,
"CN1CCC(S(=O)(=O)NC(=O)Nc2c3c(cc4c2CCC4)CCC3)CC1 [Example 1, N-((1,2,3,5,6,7-Hexahydro-s-indacen-4-yl)carbamoyl)-1-methylpiperidine-4-sulfonamide, potassium salt]",1950 ng·h/mL,8.5 mL/min/kg,1.2 h,0.58 L/kg,1000 to 10000 nM,1000 to 10000 nM,,,,,,,,
"CCCN1CC(S(=O)(=O)NC(=O)Nc2c3c(cc4c2CCC4)CCC3)C1 [Example 76, N-((1,2,3,5,6,7-Hexahydro-s-indacen-4-yl)carbamoyl)-1-propylazetidine-3-sulfonamide, potassium salt]",2650 ng·h/mL,6.3 mL/min/kg,1 h,0.25 L/kg,< 1000 nM,< 1000 nM,,,,,,,,
"O=C(Nc1c2c(cc3c1CCC3)CCC2)NS(=O)(=O)C1CN(CC2CC2)C1 [Example 94, 1-(Cyclopropylmethyl)-N-((1,2,3,5,6,7-hexahydro-s-indacen-4-yl)carbamoyl)azetidine-3-sulfonamide, potassium salt]",,,,,< 1000 nM,< 1000 nM,1410 ng·h/mL,25.2 mL/min/kg,1.1 h,1.62 L/kg,,,,
"CC(C)N1CCCC(S(=O)(=O)NC(=O)Nc2c3c(cc4c2CCC4)CCC3)C1 (centres unmarked) [Example 31, N-((1,2,3,5,6,7-Hexahydro-s-indacen-4-yl)carbamoyl)-1-iso-propyl-piperidine-3-sulfonamide, potassium salt]",2750 ng·h/mL,6.1 mL/min/kg,4.5 h,0.47 L/kg,< 1000 nM,< 1000 nM,,,,,,,,
"CC(C)N1CCC(S(=O)(=O)NC(=O)Nc2c3c(cc4c2CCC4)CCC3)C1 (centres unmarked) [Example 41, N-((1,2,3,5,6,7-Hexahydro-s-indacen-4-yl)carbamoyl)-1-iso-propylpyrrolidine-3-sulfonamide, potassium salt]",1850 ng·h/mL,9.1 mL/min/kg,2.9 h,0.78 L/kg,< 1000 nM,< 1000 nM,,,,,,,,
"COc1cc(-c2ccc3c(c2NC(=O)NS(=O)(=O)c2ccc(=O)n(C(C)C)c2)CCC3)ccn1 [Example 153, 1-Isopropyl-N-((5-(2-methoxypyridin-4-yl)-2,3-dihydro-1H-inden-4-yl)carbamoyl)-6-oxo-1,6-dihydropyridine-3-sulfonamide]",511 ng·h/mL,32.6 mL/min/kg,1.1 h,1.21 L/kg,< 1000 nM,< 1000 nM,,,,,,,,
"CC(C)N1CC(S(=O)(=O)NC(=O)Nc2c3c(cc4c2CCC4)CCC3)C1 [Example 46, N-((1,2,3,5,6,7-Hexahydro-s-indacen-4-yl)carbamoyl)-1-iso-propylazetidine-3-sulfonamide, potassium salt]",2080 ng·h/mL,8.2 mL/min/kg,1.2 h,0.45 L/kg,< 1000 nM,< 1000 nM,,,,,3510 ng·h/mL,1330 ng/mL,0.67 h,1.4 h
"CC(C)n1cc(S(=O)(=O)NC(=O)Nc2c3c(cc4c2CCC4)CCC3)ccc1=O [Example 185, N-((1,2,3,5,6,7-Hexahydro-s-indacen-4-yl)carbamoyl)-1-isopropyl-6-oxo-1,6-dihydropyridine-3-sulfonamide, sodium salt]",,,,,< 1000 nM,1000 to 10000 nM,,,,,,,,
"CC(CO)N1CC(S(=O)(=O)NC(=O)Nc2c3c(cc4c2CCC4)CCC3)C1 (centres unmarked) [Example 130, N-((1,2,3,5,6,7-Hexahydro-s-indacen-4-yl)carbamoyl)-1-(1-hydroxypropan-2-yl)azetidine-3-sulfonamide, potassium salt]",,,,,< 1000 nM,< 1000 nM,,,,,,,,
"CCN1CCC(S(=O)(=O)NC(=O)Nc2c3c(cc4c2CCC4)CCC3)CC1 [Example 6, 1-Ethyl-N-((1,2,3,5,6,7-hexahydro-s-indacen-4-yl)carbamoyl)piperidine-4-sulfonamide, potassium salt]",2340 ng·h/mL,7.2 mL/min/kg,2.7 h,0.61 L/kg,< 1000 nM,< 1000 nM,,,,,5400 ng·h/mL,1770 ng/mL,0.5 h,2.7 h
"O=C(Nc1c2c(cc3c1CCC3)CCC2)NS(=O)(=O)C1CN(Cc2cccnc2)C1 [Example 90, N-((1,2,3,5,6,7-Hexahydro-s-indacen-4-yl)carbamoyl)-1-(pyridin-3-ylmethyl)azetidine-3-sulfonamide, potassium salt]",,,,,< 1000 nM,< 1000 nM,,,,,,,,

# From patent publication US20250115591A1, “NOVEL SULFONAMIDE CARBOXAMIDE COMPOUNDS” (INFLAZOME LIMITED, priority 2017, published 2025)
